Consider 32 molecules from patent US9422296B2, “Fast-dissociating dopamine 2 receptor antagonists” (Janssen Pharmaceutica NV, priority 2007, dated 2016).

Counter-ions that a name gives are not always drawn. Like-named read-outs stand apart in the source and are kept apart here.

Data set [1] concerns the target T1, human Dopamine D2L receptor (Homo sapiens, UniProt P14416).
T1 construct: expressed in transfected cells; host or cells: CHO cells (membranes)
As to the kind of experiment: In vitro binding affinity for human D2L receptor ([3H]spiperone). The following applies: membranes of human D2L receptor-transfected CHO cells, read-out: D2L binding pIC50 (converted). The source says:
In order to find antipsychotic compounds active against positive and negative symptoms and cognitive impairment, and having an improved safety profile (low EPS incidence and no metabolic disorders), we have screened for compounds selectively interacting with the dopamine D2 receptor and dissociating fast from this receptor, and further having affinity for the dopamine D3 receptor as well as the serotonin 5-HT-6 receptor. Compounds were first screened for their D2 affinity in a binding assay using [^3H]spiperone and human D2L receptor cell membranes.
Pharmacology In Vitro Binding Affinity for Human D2L Receptor
Frozen membranes of human Dopamine D2L receptor-transfected CHO cells were thawed, briefly homogenised using an Ultra-Turrax T25 homogeniser and diluted in Tris-HCl assay buffer containing NaCl, CaCl2, MgCl2, KCl (50, 120, 2, 1, and 5 mM respectively, adjusted to pH 7.7 with HCl) to an appropriate protein concentration optimised for specific and non-specific binding. Radioligand [^3H]Spiperone (NEN, specific activity ˜70 Ci/mmol) was diluted in assay buffer at a concentration of 2 nmol/L. Prepared radioligand (50 μl), along with 50 μl of either the 10% DMSO control, Butaclamol (10^−6 mol/1 final concentration), or compound of interest, was then incubated (30 min, 37° C.) with 400 μl of the prepared membrane solution. Membrane-bound activity was filtered through a Packard Filtermate harvester onto GF/B Unifilterplates and washed with ice-cold Tris-HCl buffer (50 mM; pH 7.7; 6×0.5 ml). Filters were allowed to dry before adding scintillation fluid and counting in a Topcount scintillation counter. Percentage specific bound and competition binding curves were calculated using S-Plus software (Insightful).

Data set [2] addresses T2, human Serotonin 5HT6 receptor (Homo sapiens, UniProt P50406).
T2 construct: expressed in transfected cells; host or cells: HEK cells (membranes)
Briefly: In vitro binding affinity for human 5HT6 receptor ([3H]lysergic acid diethylamide). The settings on record: [3H]LSD, membranes of human 5HT6 receptor-transfected HEK cells; for IC50: read-out: 5-HT6 binding pIC50 (converted). The protocol:
In Vitro Binding Affinity for Human 5HT6 Receptor
Frozen membranes of human Serotonin 5HT6 receptor-transfected HEK cells were thawed, briefly homogenized using an Ultra-Turrax T25 homogeniser and diluted in 50 mM Tris-HCl assay buffer containing 10 mM MgCl2, 1 mM EDTA and 10 μM Pargyline (adjusted to pH 7.4 with HCl) to an appropriate protein concentration optimized for specific and non-specific binding. Radioligand [^3H]Lysergic acid diethylamide (Perkin Elmer, specific activity ˜80 Ci/mmol) was diluted in assay buffer at a concentration of 20 nM. Radioligand (20 μl), along with 40 μl of either the 10% DMSO control, Methiothepine (10^−5 M final concentration), or compound of interest, was then incubated with 70 μl of the prepared membrane solution and 70 μl of WGA coated PVT beads (0.25 mg/well final concentration). After shaking for 24 hours at RT plates were counted in a Topcount™ scintillation counter. Percentage specific binding and competition binding curves were calculated using S-Plus software (Insightful).

The target of data set [3] is T3, human Dopamine D3 receptor (Homo sapiens, UniProt P35462).
T3 construct: expressed in transfected cells; host or cells: CHO cells (membranes)
Briefly: In vitro binding affinity for human D3 receptor ([125I]iodosulpride). The protocol: In Vitro Binding Affinity for Human D3 Receptor
Frozen membranes of human Dopamine D3 receptor-transfected CHO cells were thawed, briefly homogenized using an Ultra-Turrax T25 homogeniser and diluted in 50 mM Tris-HCl assay buffer containing 120 mM NaCl, 2 mM CaCl2, 1 mM MgCl2, 5 mM KCl and 0.1% BSA (adjusted to pH 7.4 with HCl) to an appropriate protein concentration optimized for specific and non-specific binding. Radioligand [^125I]Iodosulpride (Amersham, specific activity ˜2000 Ci/mmol) was diluted in assay buffer at a concentration of 2 nM. Prepared radioligand (20 μl), along with 40 μl of either the 10% DMSO control, Risperidone (10^−6M final concentration), or compound of interest, was then incubated with 70 μl of the prepared membrane solution and 70 μl of WGA coated PVT beads (0.25 mg/well final concentration). After shaking for 24 hours at RT plates were counted in a Topcount™ scintillation counter. Percentage specific binding and competition binding curves were calculated using S-Plus software (Insightful).

Where [4] appears, read: [125I]iodosulpride, membranes of human D3 receptor-transfected CHO cells, read-out: D3 binding pIC50 (converted).

T2 sequence (P50406 whole entry): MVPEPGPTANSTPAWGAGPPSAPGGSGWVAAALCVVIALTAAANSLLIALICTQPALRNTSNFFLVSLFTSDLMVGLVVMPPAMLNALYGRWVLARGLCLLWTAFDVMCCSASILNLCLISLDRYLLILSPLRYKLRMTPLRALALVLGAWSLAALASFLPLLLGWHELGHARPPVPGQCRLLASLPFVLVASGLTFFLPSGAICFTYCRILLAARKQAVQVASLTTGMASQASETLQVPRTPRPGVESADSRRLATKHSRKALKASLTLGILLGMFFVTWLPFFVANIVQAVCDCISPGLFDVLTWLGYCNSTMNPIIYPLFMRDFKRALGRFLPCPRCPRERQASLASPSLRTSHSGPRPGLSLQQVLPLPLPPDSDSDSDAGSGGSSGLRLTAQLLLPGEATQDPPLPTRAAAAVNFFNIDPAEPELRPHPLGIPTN
T1 sequence (P14416 whole entry): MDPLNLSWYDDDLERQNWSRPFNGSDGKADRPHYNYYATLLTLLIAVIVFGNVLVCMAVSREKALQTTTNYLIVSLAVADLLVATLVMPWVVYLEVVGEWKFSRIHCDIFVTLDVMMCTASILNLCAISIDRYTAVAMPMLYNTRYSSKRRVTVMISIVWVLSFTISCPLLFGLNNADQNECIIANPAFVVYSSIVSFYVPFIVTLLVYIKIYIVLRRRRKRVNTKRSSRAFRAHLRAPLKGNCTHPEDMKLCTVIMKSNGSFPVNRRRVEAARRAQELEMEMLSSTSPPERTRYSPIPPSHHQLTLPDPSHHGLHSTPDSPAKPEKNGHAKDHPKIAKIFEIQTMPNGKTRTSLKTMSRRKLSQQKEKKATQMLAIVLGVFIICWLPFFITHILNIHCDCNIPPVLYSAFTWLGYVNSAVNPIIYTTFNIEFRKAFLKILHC
T3 sequence (P35462 whole entry): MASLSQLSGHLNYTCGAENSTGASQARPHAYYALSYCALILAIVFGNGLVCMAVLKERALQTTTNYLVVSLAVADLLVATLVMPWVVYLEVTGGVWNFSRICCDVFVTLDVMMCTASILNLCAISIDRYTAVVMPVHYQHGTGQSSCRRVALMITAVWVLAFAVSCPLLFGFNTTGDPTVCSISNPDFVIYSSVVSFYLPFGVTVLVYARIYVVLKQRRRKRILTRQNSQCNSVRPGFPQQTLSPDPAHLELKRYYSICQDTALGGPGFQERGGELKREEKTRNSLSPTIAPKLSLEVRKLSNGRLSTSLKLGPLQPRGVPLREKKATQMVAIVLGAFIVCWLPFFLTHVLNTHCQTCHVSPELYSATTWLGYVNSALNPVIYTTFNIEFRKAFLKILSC

Regarding `C[C@@H]1CN(c2cc(-c3ccccc3)c(C(F)(F)F)nn2)C[C@H](C)N1` [Example E4, cis-6-(3,5-Dimethylpiperazin-1-yl)-4-phenyl-3-trifluoromethyl-pyridazine], the IC50 is 3800 nM in data set [1], 8510 nM in data set [2] and above 10000 nM in data set [3] (setting [4]).
The melting point is the temperature of the solid-liquid transition. `Cc1cscc1-c1cc(N2CCNCC2)nnc1C(F)(F)F` [Example E29] came in with a melting point of 101 °C. Further, the IC50 in data set [1] was 3550 nM. The IC50 in data set [2] was 537 nM. Further, the IC50 in data set [3] (setting [4]) is above 10000 nM.
As for `CN(C)c1ccc(-c2cc(N3CCNCC3)nnc2C(F)(F)F)cc1` [Example E32], the figures for the IC50 in data set [1], in data set [2] and in data set [3] (setting [4]) were above 10000 nM, 977 nM and 1290 nM, respectively.
`FC(F)(F)c1nnc(N2CCNCC2)cc1-c1cccc2ccccc12` (as salt: hydrochloric acid salt) [Example E18] gave a melting point of 281.8 °C.
`FC(F)(F)c1nnc(N2CCNCC2)cc1-c1cccc(Cl)c1` [Example E16] yielded a melting point of 178.8 °C. Further, in data set [1], the IC50 was 4790 nM. In addition, the IC50 in data set [2] is 245 nM. Further, the IC50 in data set [3] (setting [4]) was 550 nM.
`FC(F)(F)c1nnc(N2CCNCC2)cc1-c1ccc2ccccc2c1` [Example E17] came in with a melting point of 128.1 °C. The IC50 in data set [1] was 7940 nM. The IC50 in data set [2] is 437 nM. Further, the IC50 in data set [3] (setting [4]) was 398 nM.
In the case of `FC(F)(F)c1nnc(N2CCN(CC3CC3)CC2)cc1-c1ccccc1` [Example E39], the IC50 in data set [1] is 60.3 nM; in data set [2], 3890 nM; in data set [3] (setting [4]) it was above 10000 nM.
Take `FC(F)(F)c1nnc(N2CCNCC2)cc1-c1cccc2ccccc12` [Example E18]: the figures for the IC50 in data set [1], in data set [2] and in data set [3] (setting [4]) were 7760 nM, 158 nM and above 10000 nM, respectively.
For `COc1ccccc1-c1cc(N2CCNCC2)nnc1C(F)(F)F` [Example E31] the same measures were above 10000 nM, 1120 nM and 479 nM.
On to `CC1CN(c2cc(-c3ccccc3)c(C(F)(F)F)nn2)C(C)CN1` (racemic) (as salt: hydrochloric acid salt) [Example E26], for which the melting point was determined as 273 °C.
`FC(F)(F)c1nnc(N2CCNCC2)cc1-c1cccs1` [Example E19] returned a melting point of 112.6 °C. For the same molecule, the IC50 in data set [1] was 1380 nM. For the same molecule, in data set [2], the IC50 is 1950 nM. The IC50 in data set [3] (setting [4]) is 148 nM.
In the case of `FC(F)(F)c1nnc(N2CCN(Cc3ccccn3)CC2)cc1-c1ccccc1` [Example E38], the IC50 in data set [1] is 282 nM; in data set [2], above 10000 nM; in data set [3] (setting [4]), 87.1 nM.
On to `FC(F)(F)c1nnc(N2CCNCC2)cc1-c1cc(Cl)ccc1Cl` [Example E34], for which the IC50 was 4680 nM in data set [1], 794 nM in data set [2] and 87.1 nM in data set [3] (setting [4]).
The molecule `FC(F)(F)c1nnc(N2CCNCC2)cc1-c1ccc(Br)cc1` [Example E14] returned a melting point of 138.2 °C. The IC50 in data set [1] is 4070 nM. Also, the IC50 in data set [2] was 4270 nM. For the same molecule, the IC50 in data set [3] (setting [4]) is above 10000 nM.
As to `FC(F)(F)c1nnc(N2CCN(Cc3cccnc3)CC2)cc1-c1ccccc1` [Example E37], the IC50 was 562 nM in data set [1], above 10000 nM in data set [2] and 178 nM in data set [3] (setting [4]).
For the molecule `Fc1ccc(CN2CCN(c3cc(-c4ccccc4)c(C(F)(F)F)nn3)CC2)cc1F` [Example E21], the melting point came to 185.1 °C. Moreover, the IC50 in data set [1] was 2000 nM. The “5-HT6 binding pIC50” value in data set [2] is on record as above 5. In data set [3] (setting [4]), the IC50 is 1480 nM.
For the molecule `FC(F)(F)c1nnc(N2CCN(Cc3ccccc3)CC2)cc1-c1ccccc1` [Example E36], the IC50 in data set [1] is 33.1 nM; in data set [2], 6610 nM; in data set [3] (setting [4]), above 10000 nM.
As for `FC(F)(F)c1nnc(N2CCNCC2)cc1-c1ccc(-c2ccccc2)cc1` [Example E35], the melting point amounted to 199.1 °C. Further, the IC50 in data set [1] was 2690 nM. Also, the IC50 in data set [2] is 1510 nM. Besides, the IC50 in data set [3] (setting [4]) was 107 nM.
Consider `Cc1cc(F)ccc1-c1cc(N2CCNCC2)nnc1C(F)(F)F` [Example E28], for which the values for the IC50 in data set [1], in data set [2] and in data set [3] (setting [4]) were 372 nM, 245 nM and 47.9 nM, respectively.
Molecule `Fc1cccc(-c2cc(N3CCNCC3)nnc2C(F)(F)F)c1` [Example E15] had a melting point of 144.7 °C. In addition, the IC50 in data set [1] was 5750 nM. In addition, in data set [2], the IC50 is 1550 nM. For the same molecule, the IC50 in data set [3] (setting [4]) is 631 nM.
Take `CCN1CCN(c2cc(-c3ccccc3)c(C(F)(F)F)nn2)CC1` (as salt: hydrochloric acid salt) [Example E2, 6-(4-Ethylpiperazin-1-yl)-4-phenyl-3-trifluoromethyl-pyridazine]: the melting point came to 281.9 °C.
The molecule `FC(F)(F)c1nnc(N2CCN3CCCC3C2)cc1-c1ccccc1` (racemic) (as salt: hydrochloric acid salt) [Example E5, 2-(5-Phenyl-6-trifluoromethyl-pyridazin-3-yl)-octahydro-pyrrolo[1,2-a]pyrazine] registered a melting point of 104.2 °C.
`FC(F)(F)c1nnc(N2CCNCC2)cc1-c1ccc(Cl)s1` [Example E27, 4-(5-Chloro-thiophen-2-yl)-6-piperazin-1-yl-3-trifluoromethyl-pyridazine]: the IC50 in data set [1] is 1510 nM; in data set [2], 794 nM; in data set [3] (setting [4]), above 10000 nM.
Consider `COc1ccccc1-c1cc(N2CCNCC2)nnc1C(F)(F)F` (as salt: hydrochloric acid salt) [Example E31], for which the melting point was found to be 287.7 °C.
Consider `Fc1ccccc1-c1cc(N2CCNCC2)nnc1C(F)(F)F` [Example E33], for which the IC50 is 1230 nM in data set [1], 1290 nM in data set [2] and 52.5 nM in data set [3].
The molecule `CN(C)c1ccc(-c2cc(N3CCNCC3)nnc2C(F)(F)F)cc1` (as salt: hydrochloric acid salt) [Example E32] registered a melting point of 198.7 °C.
Still for that read-out and setting: the value for `C[C@@H]1CN(c2cc(-c3ccccc3)c(C(F)(F)F)nn2)C[C@H](C)N1` (as salt: hydrochloric acid salt) [Example E4, cis-6-(3,5-Dimethylpiperazin-1-yl)-4-phenyl-3-trifluoromethyl-pyridazine] was 285.4 °C; that for `FC(F)(F)c1nnc(N2CCNCC2)cc1-c1cc(Cl)ccc1Cl` (as salt: hydrochloric acid salt) [Example E34] was 286.3 °C.
On to `CC1CN(c2cc(-c3ccccc3)c(C(F)(F)F)nn2)C(C)CN1` (racemic) [Example E26], for which the IC50 in data set [1] was 6030 nM; in data set [2], 2290 nM; in data set [3] (setting [4]), above 10000 nM.
In the case of `CN1CCN(c2cc(-c3ccccc3)c(C(F)(F)F)nn2)CC1` [Example E22], the IC50 in data set [1] is 776 nM; in data set [2], 1260 nM; in data set [3] (setting [4]), 38.9 nM.
Regarding `Oc1cccc(-c2cc(N3CCNCC3)nnc2C(F)(F)F)c1` [Example E13], the figures for the IC50 in data set [1], in data set [2] and in data set [3] (setting [4]) were 5130 nM, 3550 nM and above 10000 nM, respectively.
As for `CN1CCN(c2cc(-c3ccccc3)c(C(F)(F)F)nn2)CC1` (as salt: hydrochloric acid salt) [Example E22], the melting point was determined as 163.3 °C.
